Values after ≈ are worked out from the molar mass of the structure shown. Where two headings read alike, the source gives them in different places.
Key:
[1] = mice, intravenous injection; cited from earlier work
[2] = mouse plasma, 37° C.; cited from earlier work
[3] = human plasma, 37° C.; cited from earlier work
[4] = tested on: Cryptococcus neoformans #90112; experiment: Effect of host factors (pH, human serum) on broth macrodilution MICs and MFCs; assay type: cell-based
Protocol: (§1) Dolastatin 10 and modifications were screened against yeasts by the broth macrodilution assay according to the NCCLS (National Committee for Clinical Laboratory Standards, Reference Method for Broth Dilution Antifungal Susceptibility Testing of Yeasts: Approved Standard M27-A, NCCLS, Wayne, Pa., 1997). Yeasts were suspended and diluted as recommended to yield final inocula ranging from 0.5-2.5×10^3 colony forming units (CFU)/ml. Tests were performed in sterile 12×75 mm plastic tubes containing two-fold dilutions of the peptides in 0.165 M morpholinepropanesulfonic acid (MOPS)-buffered RPMI 1640 medium (pH 7.0). One tube was left drug-free for a turbidity control. Tubes were incubated without agitation at 35° C. (25° C. for C. albidus and C. laurentii). MICs were determined after 72 h for Cryptococcus, and after
(§2) 48 h for other yeast genera. The MIC was defined as the lowest concentration of compound that inhibited all visible growth of the test organism.
(§3) Minimum fungicidal concentrations (MFCs) were determined by subculturing 0.1 ml from each tube with no visible growth in the MIC broth macrodilution series onto drug-free SDA plates. The plates were incubated at 35° C. for 48 h for Cryptococcus (25° C. for C. alhidus and C. laurentii), and 35° C. for 24 h for all other yeast and filamentous fungi.
Broth macrodilution assays were performed with RPMI prepared at pH 5, pH 6 and pH 7, and in RPMI, with and without 50% normal human serum (Lampire Biological Labs). Cryptococcus neoformans #90112 was used in each case.

[5] = tested on: fluconazole-resistant Cryptococcus neoformans; assay type: cell-based
Text: Clinical isolates of C. neoformans were obtained from patient cerebrospinal fluid, blood, bone marrow, sputum, bronchial lavage and wound infections at the University of Virginia Medical Center, Strains clinically resistant to fluconazole (See: Jessup, C. J. et al, 1997; Poster #F-88, 37th ICAAC, Toronto, Canada) were provided by the Center for Medical Mycology, Case Western Reserve University. Yeast strains (except for C. albidus and C. laurentii) were maintained by single colony transfer on Sabouraud Dextrose Agar (SDA), pH 5.6 at 35° C. Cryptococcus albidus, C. laurentii and C. uniguttulatus (#66033) were maintained on SDA, pH 6.6 at 25° C., C. uniguttulatus (#34143) and C. ater on Yeast Morphology (YM) agar at 25° C. and filamentous fungi were maintained on Potato Dextrose Agar (PDA) slants at 35° C.
as §1, §2, §3

[6] = cited from earlier work
[7] = tested on: Candida glabrata; experiment: Broth macrodilution assay; assay type: cell-based; conditions: ATCC 90030
Protocol: as §1, §2, §3

[8] = tested on: Candida albicans; experiment: Broth macrodilution assay; assay type: cell-based; conditions: ATCC 90028
Protocol: as §1, §2, §3

[9] = tested on: Cryptococcus laurentii; experiment: Broth macrodilution assay; assay type: cell-based
Protocol: as §1, §2, §3

[10] = tested on: Candida lusitaniae; experiment: Broth macrodilution assay; assay type: cell-based; conditions: ATCC 42720
Protocol: as §1, §2, §3

[11] = tested on: Cryptococcus ater; experiment: Broth macrodilution assay; assay type: cell-based; conditions: ATCC 14247
Protocol: as §1, §2, §3

[12] = tested on: Cryptococcus uniguttulatus; experiment: Broth macrodilution assay; assay type: cell-based
Protocol: as §1, §2, §3

[13] = tested on: Candida parapsilosis; experiment: Broth macrodilution assay; assay type: cell-based; conditions: ATCC 22019
Protocol: as §1, §2, §3

[14] = tested on: Rhodotorula mucilaginosa; experiment: Broth macrodilution assay; assay type: cell-based; conditions: ATCC 9449
Protocol: as §1, §2, §3

[15] = tested on: Cryptococcus albidus; experiment: Broth macrodilution assay; assay type: cell-based
Protocol: as §1, §2, §3

[16] = tested on: Cryptococcus neoformans; experiment: Broth macrodilution assay (MIC, MFC), ATCC strains; assay type: cell-based
Protocol: as §1, §2, §3

[17] = tested on: Candida glabrata; experiment: Disk diffusion susceptibility testing; assay type: cell-based; conditions: ATCC 90030
Protocol: (§4) Antimicrobial activity was assayed by disk susceptibility tests according to the NCCLS (National Committee for Clinical Laboratory Standards, Performance Standards for Antimicrobial Disk Susceptibility Tests-Sixth Edition: Approved standard M2-A6, NCCLS, Wayne, Pa., 1997). Inocula were adjusted to a density of 0.10 at 625 nm in SDA broth, and spread on SDA plates. Excess moisture was allowed to absorb for 10 min before applying dried disks containing two-fold dilutions of the drugs. Test plates were incubated at 35° C. (25° C. for C. albidus and C. laurentii), and zones of inhibition recorded after 48 h. The minimum inhibitory concentration (MIC) was defined as the lowest concentration of drug resulting in a clear zone of growth inhibition. Disk susceptibility testing of Staphylococcus aureus, Enterococcus faecalis, Escherichia coli and Neisseria gonorrhoeae was also performed.

[18] = tested on: Candida albicans; experiment: Disk diffusion susceptibility testing; assay type: cell-based; conditions: ATCC 90028
Protocol: as §4

[19] = tested on: Cryptococcus laurentii; experiment: Disk diffusion susceptibility testing; assay type: cell-based; conditions: ATCC 66036
Protocol: as §4

[20] = tested on: Cryptococcus neoformans; experiment: Disk diffusion susceptibility testing; assay type: cell-based; conditions: ATCC 90112
Protocol: as §4

[21] = tested on: Cryptococcus albidus; experiment: Disk diffusion susceptibility testing; assay type: cell-based; conditions: ATCC 66030
Protocol: as §4

[22] = dog plasma, 37° C.; cited from earlier work
[23] = tested on: Rhizopus oligosporus; experiment: Broth macrodilution susceptibility testing of filamentous fungi; assay type: cell-based; conditions: ATCC 22959
Protocol: (§5) Broth macrodilution susceptibility testing of Aspergillus fumigatus and Rhizopus oligosporus was performed according to a proposed standardized procedure (Espinel-Ingroff et al., Multicenter evaluation of a proposed standardized procedure for antifungal susceptibility testing of filamentous fungi, J Clin Microbiol 1997, 35: 139-43) with slight modification. To induce conidium and sporangiospore formation, A. fumigatus and R. oligosporus were grown on PDA slants at 35° C. for 6 days. Fungal slants were covered with 1 ml of sterile 0.85% NaCl, and suspensions made by gently probing the colonies with the tip of a sterile pasteur pipette. The resulting mixture of hyphal fragments and conidia or sporangiospores was withdrawn, transferred to a sterile clear microfuge tube, and heavy particles were allowed to settle for 10 min. […] Susceptibility to the synthetic peptides was then determined by broth macrodilution assays as described above for the yeast cultures. MICs for the filamentous fungi were read after 24 h.
(§6) Minimum fungicidal concentrations (MFCs) were determined by subculturing 0.1 ml from each tube with no visible growth in the MIC broth macrodilution series onto drug-free SDA plates. […]

[24] = tested on: Aspergillus fumigatus; experiment: as above; assay type: cell-based; conditions: ATCC 96918
Protocol: as §5, §6

For `CC[C@H](C)[C@@H]([C@@H](CC(=O)N1CCC[C@H]1[C@H](OC)[C@@H](C)C(=O)N[C@@H](Cc1ccccc1)c1nccs1)OC)N(C)C(=O)[C@@H](NC(=O)[C@H](C(C)C)N(C)C)C(C)C` [1a, dolastatin 10], the estimated elimination half-life [1] is listed as 5.6 h, the stable in plasma [2] is listed as “at least 24 h” and the stable in plasma [3] is listed as “at least 24 h”. It also gave an MFC ([4]; 50% human serum) of 1.56 µg/mL (≈ 1.99 µM), an MIC ([4]; 50% human serum) of 0.78 µg/mL (≈ 0.993 µM) and an MFC ([4]; RPMI pH 5) of over 50 µg/mL. For the same compound, the MIC ([4]; RPMI pH 5) was over 50 µg/mL, the MFC ([4]; RPMI pH 6) was 25 µg/mL (≈ 31.8 µM) and the MIC ([4]; RPMI pH 6) was 6.25 µg/mL (≈ 7.96 µM). For the same compound, the MFC ([4]; RPMI pH 7) was 1.56 µg/mL (≈ 1.99 µM), the MIC ([4]; RPMI pH 7) was 0.78 µg/mL (≈ 0.993 µM) and the MFC ([4]; no serum) was 1.56 µg/mL (≈ 1.99 µM). It also gave an MIC ([4]; no serum) of 0.78 µg/mL (≈ 0.993 µM), an MFC ([5]; strain 94-2011) of 1.56 µg/mL (≈ 1.99 µM) and an MIC ([5]; strain 94-2011) of 0.78 µg/mL (≈ 0.993 µM). The MFC ([5]; strain 94-2406) was 0.0975 µg/mL (≈ 0.124 µM), the MIC ([5]; strain 94-2406) was 0.0487 µg/mL (≈ 0.062 µM) and the MFC ([5]; strain 94-2483) was 0.39 µg/mL (≈ 0.497 µM). It also gave an MIC ([5]; strain 94-2483) of 0.195 µg/mL (≈ 0.248 µM), an MFC ([5]; strain 95-2792) of 3.12 µg/mL (≈ 3.97 µM) and an MIC ([5]; strain 95-2792) of 0.78 µg/mL (≈ 0.993 µM). The “toxicity in patients with advanced solid tumors” value ([6]; doses up to 200 μg/m^2) was “minimal toxicity”, the “toxicity in human cancer clinical trials” value ([6]; doses up to 455 μg/m^2) was “minimal toxicity” and the MFC [7] was over 50 µg/mL. The MIC [7] was over 50 µg/mL, the MFC [8] was over 25 µg/mL and the MIC [8] was over 50 µg/mL. The MIC ([9]; ATCC 18803) was over 50 µg/mL, the MIC ([9]; ATCC 34142) was over 50 µg/mL and the MIC ([9]; ATCC 66036) was over 50 µg/mL. The MIC [10] was over 50 µg/mL, the MIC [11] was over 50 µg/mL and the MIC ([12]; ATCC 34143) was over 50 µg/mL. The MIC ([12]; ATCC 66033) was over 50 µg/mL, the MIC [13] was over 50 µg/mL and the MIC [14] was over 50 µg/mL. The MIC ([15]; ATCC 10666) was over 50 µg/mL, the MIC ([15]; ATCC 34140) was over 50 µg/mL and the MIC ([15]; ATCC 66030) was over 50 µg/mL. It also gave an MFC ([16]; ATCC 14116) of 6.25 µg/mL (≈ 7.96 µM), an MIC ([16]; ATCC 14116) of 3.12 µg/mL (≈ 3.97 µM) and an MFC ([16]; ATCC 32045) of 1.56 µg/mL (≈ 1.99 µM). The MIC ([16]; ATCC 32045) was 0.78 µg/mL (≈ 0.993 µM), the MFC ([16]; ATCC 66031) was 1.56 µg/mL (≈ 1.99 µM) and the MIC ([16]; ATCC 66031) was 0.78 µg/mL (≈ 0.993 µM). For the same compound, the MFC ([16]; ATCC 90112) was 1.56 µg/mL (≈ 1.99 µM), the MIC ([16]; ATCC 90112) was 0.78 µg/mL (≈ 0.993 µM) and the MIC [17] was over 100 μg/disk. For the same compound, the MIC [18] was over 100 μg/disk, the MIC [19] was over 100 μg/disk and the MIC [20] was 25-50 μg/disk. For the same compound, the MIC [21] was over 100 μg/disk, the stable in plasma [22] was “at least 24 h” and the MIC [23] was over 50 µg/mL. For the same compound, the MIC [24] was over 50 µg/mL.
